Bridge positions count the residues as written; N and C are the ends. Ends that are not written are not given here. I, II: the chains in the order shown.
Legend:
human IR-A [1] = target: T1, human IR-A (Homo sapiens, UniProt P06213); test: Whole-cell binding competition assay with 125I-insulin on IM-9 lymphoblasts; design: human IM-9 lymphoblasts, that express IR-A exclusively; host or cells: human IM-9 lymphoblasts (whole cells)
Description: (§1) For receptor binding studies, human IM-9 lymphoblasts, that express IR-A exclusively, and R^−/IR-B and R^+ murine embryonic fibroblasts were used for a whole-cell receptor-binding assay. Receptor binding assays on IR-A were perfomed accoding to Morcavallo et al. [24]and binding assays on IR-B and IGF1R were performed according to Kosinova et al.. […] Human ^125I-insulin was prepared as described by Asai et al. and human ^125I-IGF-1 was prepared as described in Kertisova et al..

human IR-B = target: T2, human IR-B (Homo sapiens, UniProt P06213); test: Whole-cell binding competition assay with 125I-insulin on R-/IR-B fibroblasts; settings: competition with 125I-insulin, R-/IR-B cells; mean ± S.D. (n), n ≥ 3; measurement series #; SD
T2 construct: expressed in transfected cells; host or cells: murine embryonic fibroblasts from IGF1R knockout mice, stably transfected with IR-B (R-/IR-B cells)
T2 sequence (P06213 28-758 limits assumed): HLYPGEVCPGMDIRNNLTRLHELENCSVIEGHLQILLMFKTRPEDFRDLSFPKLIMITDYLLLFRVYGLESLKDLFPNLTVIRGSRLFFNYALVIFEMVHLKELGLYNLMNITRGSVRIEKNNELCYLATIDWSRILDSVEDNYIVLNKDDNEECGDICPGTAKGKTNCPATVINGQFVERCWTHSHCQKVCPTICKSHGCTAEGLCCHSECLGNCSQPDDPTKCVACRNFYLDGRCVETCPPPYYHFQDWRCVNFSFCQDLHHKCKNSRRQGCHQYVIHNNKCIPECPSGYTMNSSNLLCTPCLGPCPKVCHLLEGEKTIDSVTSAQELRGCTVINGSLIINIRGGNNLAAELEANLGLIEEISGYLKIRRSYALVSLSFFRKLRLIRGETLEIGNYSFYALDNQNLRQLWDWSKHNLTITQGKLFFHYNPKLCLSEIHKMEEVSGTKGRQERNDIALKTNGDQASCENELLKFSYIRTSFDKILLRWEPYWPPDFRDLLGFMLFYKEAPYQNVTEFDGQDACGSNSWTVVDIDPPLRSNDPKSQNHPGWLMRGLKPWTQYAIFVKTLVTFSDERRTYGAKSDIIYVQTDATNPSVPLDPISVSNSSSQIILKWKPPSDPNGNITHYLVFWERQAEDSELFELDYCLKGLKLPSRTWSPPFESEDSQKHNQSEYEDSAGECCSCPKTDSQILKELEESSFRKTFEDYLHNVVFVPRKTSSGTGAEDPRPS
T2 sequence (P06213 763-1382 limits assumed): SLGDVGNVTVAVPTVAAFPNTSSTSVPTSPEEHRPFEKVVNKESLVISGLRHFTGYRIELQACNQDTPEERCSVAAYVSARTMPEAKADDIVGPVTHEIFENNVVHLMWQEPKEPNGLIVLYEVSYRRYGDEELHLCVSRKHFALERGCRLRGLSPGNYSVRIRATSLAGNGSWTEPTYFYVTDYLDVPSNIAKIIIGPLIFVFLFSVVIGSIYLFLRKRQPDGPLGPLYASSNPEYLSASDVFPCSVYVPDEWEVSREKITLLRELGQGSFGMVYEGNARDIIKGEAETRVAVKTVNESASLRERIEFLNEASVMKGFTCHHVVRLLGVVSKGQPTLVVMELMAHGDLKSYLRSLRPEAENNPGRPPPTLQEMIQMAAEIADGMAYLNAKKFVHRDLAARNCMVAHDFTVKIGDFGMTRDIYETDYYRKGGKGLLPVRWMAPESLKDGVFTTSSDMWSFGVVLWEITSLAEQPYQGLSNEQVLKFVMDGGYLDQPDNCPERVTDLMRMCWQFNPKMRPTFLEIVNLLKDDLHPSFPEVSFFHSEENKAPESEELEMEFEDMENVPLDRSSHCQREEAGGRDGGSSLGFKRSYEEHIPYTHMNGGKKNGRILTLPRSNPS
Description: as §1

human IGF1R [2] = target: T3, human IGF1R (Homo sapiens, UniProt P08069); test: Whole-cell binding competition assay with 125I-IGF-1 on R+ fibroblasts; design: expressed in transfected cells; host or cells: murine embryonic fibroblasts from IGF1R knockout mice, stably transfected with IGF1R (R+ cells); settings: competition with 125I-IGF-1, R+ cells; mean ± S.D. (n), n ≥ 3; measurement series #; SD
Description: as §1
Target sequence in this assay (P08069 31-736): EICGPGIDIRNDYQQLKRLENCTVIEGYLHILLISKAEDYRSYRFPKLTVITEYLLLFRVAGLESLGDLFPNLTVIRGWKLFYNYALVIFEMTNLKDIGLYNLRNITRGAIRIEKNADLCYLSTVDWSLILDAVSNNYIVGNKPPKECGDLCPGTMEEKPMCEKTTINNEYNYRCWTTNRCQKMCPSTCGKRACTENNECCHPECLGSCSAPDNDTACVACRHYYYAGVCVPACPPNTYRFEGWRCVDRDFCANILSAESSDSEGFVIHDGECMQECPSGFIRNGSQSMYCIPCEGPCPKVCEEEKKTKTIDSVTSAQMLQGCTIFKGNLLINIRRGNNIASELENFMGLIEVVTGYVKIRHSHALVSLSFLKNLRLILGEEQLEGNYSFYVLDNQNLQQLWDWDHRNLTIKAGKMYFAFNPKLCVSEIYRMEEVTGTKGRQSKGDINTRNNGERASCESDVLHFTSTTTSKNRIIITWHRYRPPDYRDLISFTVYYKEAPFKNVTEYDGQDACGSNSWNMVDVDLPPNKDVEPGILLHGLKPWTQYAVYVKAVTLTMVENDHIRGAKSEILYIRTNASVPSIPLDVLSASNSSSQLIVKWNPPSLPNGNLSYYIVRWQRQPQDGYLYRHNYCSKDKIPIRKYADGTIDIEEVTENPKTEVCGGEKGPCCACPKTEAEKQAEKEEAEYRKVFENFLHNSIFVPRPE
Target sequence in this assay (P08069 741-1367): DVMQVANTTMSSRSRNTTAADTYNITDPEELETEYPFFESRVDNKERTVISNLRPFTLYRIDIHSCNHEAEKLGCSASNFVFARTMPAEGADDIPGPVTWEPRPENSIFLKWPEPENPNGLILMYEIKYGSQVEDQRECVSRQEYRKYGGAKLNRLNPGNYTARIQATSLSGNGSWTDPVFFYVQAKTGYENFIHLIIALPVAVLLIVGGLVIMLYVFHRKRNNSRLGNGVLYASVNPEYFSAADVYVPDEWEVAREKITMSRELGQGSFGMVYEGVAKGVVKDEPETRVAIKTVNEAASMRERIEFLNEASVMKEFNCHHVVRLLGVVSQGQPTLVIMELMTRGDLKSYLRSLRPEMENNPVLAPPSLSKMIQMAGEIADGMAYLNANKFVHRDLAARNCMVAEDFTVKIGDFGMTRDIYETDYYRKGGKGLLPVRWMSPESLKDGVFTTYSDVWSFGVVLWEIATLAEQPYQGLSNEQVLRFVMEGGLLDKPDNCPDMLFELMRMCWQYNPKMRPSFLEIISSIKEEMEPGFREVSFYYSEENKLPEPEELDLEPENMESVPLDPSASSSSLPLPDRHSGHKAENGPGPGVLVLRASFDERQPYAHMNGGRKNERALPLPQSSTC

human IGF1R [3] = target: T3, human IGF1R; test: cell-based; design: expressed in transfected cells; host or cells: HEK293 cells overexpressing human IGF-1R
Description: (§2) Insulin or IGF-1 receptor phosphorylation was measured as described in [13]. Briefly, HEK293 cells overexpressing human IR-A, IR-B, or IGF-1R were plated in 96-well tissue culture plates and cultured for 16–20 h at 37 °C, 5 % CO2, and 90 % humidity. […] For antagonism studies, test peptides were pre-mixed with 10 nM IGF-1. After 15 min incubation at 37 °C in humidified atmosphere with 5 % CO2, the cells were fixed with 5 % paraformaldehyde for 20 min at room temperature, washed twice with PBS (pH 7.4) and blocked with 2 % BSA in PBS for 1 h. The plate was washed three times, filled with anti-phospho-IR/IGF1R (Tyr1158) antibody (Millipore) and incubated for 3 h at room temperature, after which the plate was washed four times and filled with goat anti-rabbit secondary antibody (#A16110, ThermoFisher). Following 30 min incubation and another four washes, 0.1 mL of TMB One Solution substrate (#00-2023; Invitrogen) was added to each well. Color development was stopped 10 min later by adding 0.05 mL 1 M HCl.
Target sequence in this assay (P08069 741-1367): as above
Target sequence in this assay (P08069 31-736): as the sequence (P08069 31-736) above

human IR-A [4] = target: T1, human IR-A; test: cell-based; design: human IM-9 lymphoblasts, that express IR-A exclusively
Description: as §2

R+ cells = test: BrdU proliferation assay of transfected R+ cells; format: cell-based, mouse; settings: 10 nM IGF-1 for 24 h; BrdU for last 6 h
Description: R^+ cells (described in 2.4) were seeded into 96-well plates so that they reached ∼50 % confluency after overnight incubation. […] Three hours post transfection, Opti-MEM medium was exchanged for regular culture medium. 24 h post transfection, cells were washed once with PBS and starved in serum free culture medium. After 24 h of starvation, cells were stimulated with IGF-1 (diluted in serum free medium) to reach final concentration of 10 nM IGF-1 per well for another 24 h period (serum free medium only was added to the non-stimulated wells). To determine the rate of proliferation in each well, BrdU Cell Proliferation Assay (Sigma–Aldrich, #QIA58) was used. Manufacturer's instructions were followed, with the BrdU probe being added for the last 6 h of the 24 h stimulation with IGF-1. Absorbance at dual wavelengths of 450–540 nm was measured using a spectrophotometric plate reader. The experiment was repeated at least three times and for each biological replicate, results were expressed as relative change compared to non-stimulated cells transfected with empty vector. Statistical analysis was performed using paired two-tailed Student's t-test.

IGF1R gene expression = IGF1R gene expression (RT-qPCR) in R+ cells after repeated stimulation with synthetic ligand; format: cell-based, human; settings: 100 nM ligand every 3 h over 24 h, normalised to β-actin, compared to basal, n = 3
Description: To assess the potential impact of external VILP exposure on IGF1R gene expression, we employed R^+ cells, seeding 30 × 10^4 cells per well. Following a 24-hour incubation period, cells were washed twice with PBS and were subsequently serum-starved for 4 h before sequential stimulation with various ligands (scMFRV-VILP, dcMFRV-VILP, and IGF-1). The cells were stimulated with 100 nM of each ligand every 3 h over a 24-hour period. Post the final stimulation, the cells were snap-frozen and stored at −80 °C.
Subsequently, the lysates were transferred to microtubes and chloroform in ratio 5:1 (Tri Reagent: chloroform) was added. The mixture was vortexed for 15s, incubated at RT for 5 min and centrifuged for 15 min at 12000g, 4 °C. The upper aqueus phase was transferred to new tubes, 100 % ethanol was added to give a 1:1 volumetric ratio and subsequently the Direct-zol RNA Miniprep Kit (Zymo Research) was used according to the manufacturer's instructions. cDNA synthesis was performed using Maxima™ H Minus cDNA Syntheis Master Mix (ThermoFisher Scientific) according to manufacturer's instructions. The qPCR was performed using Power SYBR® Green PCR Master Mix (Applied Biosystems) according to manufacturer's instructions on QuantStudio 3 (Applied Biosystems). Statistical analysis was performed using ordinary one-way ANOVA followed by Tukey's multiple comparison test.

C57BL/6 J mice = test: Insulin tolerance test; format: in vivo, mouse
Description: All animal studies presented in this study complied with the regulations and ethics guidelines of the NIH and were approved by the Boston College Institutional Animal Care and Use Committee. Insulin tolerance testing was performed on 12 to 17-week-old male C57BL/6 J mice (Jackson Laboratory). Mice were grouped according to their weight before experiment. After 6-hour starvation, mice were injected i.p. with insulin (Humulin, 6 nmol/kg, corresponds to 1.0 U/kg, 1x) (Eli Lilly), scMFRV-VILP (6 nmol/kg, 1x and 60 nmol/kg, 10x), dcMFRV-VILP (60 nmol/kg, 10x), dcLCDV-Sa-VILP (0.3 μmol/kg, 50x), and saline as a control (n = 4–11 per condition). Tail-vein blood glucose was measured until 3 h post-injection using an Infinity glucometer (US Diagnostic Inc.). Statistical analysis was done using Mixed effects analysis - Dunnett's multiple comparisons test.

IR-B = test: Insulin/IGF signaling via IR-B in R-/IR-B cells (western blot); format: cell-based, human; settings: 0.1-500 nM, 30 min
Description: For receptor phosphorylation and downstream signaling experiments, R^−/IR-A, R^−/IR-B and R^+ cells (described in 2.4) were used to explore signaling properties of ligands via specific receptors. Cells were seeded into 24-well plates (10^5 cells per well) in 300 μl of culture medium (described above) and grown overnight. Afterwards, cells were washed twice with PBS and starved in serum-free culture medium for 4 h. After the starvation, cells were washed with pure DMEM medium and incubated with ligand diluted in pure DMEM medium (0, 0.1, 1, 10, 100, 250 and 500 nM) in 37 °C for 30 min. For co-incubation of a VILP with 10 nM insulin/IGF-1, increasing concentrations of the VILP were pre-mixed with insulin or IGF-1 prior stimulation of cells. The reaction was terminated by washing the cells with ice-cold PBS (HyClone) followed by snap freezing in liquid nitrogene. […] Protein concentration in each sample was evaluated using BCA Assay (Thermo Fisher Scientific). Samples were further diluted using sample buffer for SDS-PAGE (final concentration 62.5 mM Tris, 2 % SDS (w/v), 10 % glycerol (v/v). 0.01 % bromphenol blue (w/v), 0.1 M DTT (w/v), pH 6.8 (HCl)) and routinely analyzed using SDS-PAGE and immunoblotting. […] Western blots were quantified using Image Lab 6.0.1 (Bio-Rad). […]

T1 sequence (P06213 763-1382): as the sequence (P06213 763-1382 limits assumed) above
T1 sequence (P06213 other isoform, or with tags, fused parts or gaps): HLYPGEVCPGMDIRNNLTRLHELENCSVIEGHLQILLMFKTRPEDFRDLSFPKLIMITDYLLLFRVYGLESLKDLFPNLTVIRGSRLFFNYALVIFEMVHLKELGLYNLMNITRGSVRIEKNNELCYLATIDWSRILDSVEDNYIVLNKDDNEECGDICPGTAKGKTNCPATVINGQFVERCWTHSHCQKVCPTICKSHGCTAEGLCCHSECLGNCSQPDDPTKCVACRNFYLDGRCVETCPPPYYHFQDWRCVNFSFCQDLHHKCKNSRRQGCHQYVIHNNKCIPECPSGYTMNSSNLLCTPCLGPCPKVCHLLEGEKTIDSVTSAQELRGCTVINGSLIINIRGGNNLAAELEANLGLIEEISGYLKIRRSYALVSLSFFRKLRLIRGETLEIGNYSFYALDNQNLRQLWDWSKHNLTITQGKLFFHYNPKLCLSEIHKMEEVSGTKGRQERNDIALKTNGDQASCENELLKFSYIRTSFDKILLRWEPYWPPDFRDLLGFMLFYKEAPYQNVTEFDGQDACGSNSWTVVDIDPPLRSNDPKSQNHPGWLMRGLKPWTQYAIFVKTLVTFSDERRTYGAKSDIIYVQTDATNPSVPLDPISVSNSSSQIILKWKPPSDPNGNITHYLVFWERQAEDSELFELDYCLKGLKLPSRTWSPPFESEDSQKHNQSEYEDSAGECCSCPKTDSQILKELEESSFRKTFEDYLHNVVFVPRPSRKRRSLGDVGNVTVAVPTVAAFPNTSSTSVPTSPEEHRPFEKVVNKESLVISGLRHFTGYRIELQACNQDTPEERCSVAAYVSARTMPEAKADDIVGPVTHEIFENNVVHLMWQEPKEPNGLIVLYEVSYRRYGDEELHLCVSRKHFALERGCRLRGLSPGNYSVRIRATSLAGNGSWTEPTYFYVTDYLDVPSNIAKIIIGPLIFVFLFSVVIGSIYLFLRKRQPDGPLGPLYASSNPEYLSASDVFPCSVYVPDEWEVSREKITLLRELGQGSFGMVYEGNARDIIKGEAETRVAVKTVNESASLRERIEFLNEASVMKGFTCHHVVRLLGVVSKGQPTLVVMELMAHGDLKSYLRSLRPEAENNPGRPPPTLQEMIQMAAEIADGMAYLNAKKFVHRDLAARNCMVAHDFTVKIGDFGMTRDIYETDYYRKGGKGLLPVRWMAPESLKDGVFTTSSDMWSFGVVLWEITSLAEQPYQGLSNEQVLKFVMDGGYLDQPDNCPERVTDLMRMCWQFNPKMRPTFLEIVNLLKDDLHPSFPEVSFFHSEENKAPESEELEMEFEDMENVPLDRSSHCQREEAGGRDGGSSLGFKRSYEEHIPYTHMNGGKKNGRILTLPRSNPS

## I: ILAQTLCGSELVDALELVCGEYGGIYRPPK / II: KIVDVCCTTKGCNYMDLKQYCN (disulfide I:7-II:7, I:19-II:21, II:6-II:12) [dcLCDV-Sa]
Human IR-A [1]; competition with 125I-insulin, IM-9 cells, mean ± S.D. (n), n ≥ 3 binding curves each in duplicate, measurement series #, SD
  Kd: 487 ± 287 nM
Human IR-B
  Kd: 994 ± 55 nM
Human IGF1R [2]
  Kd: 639 ± 453 nM
Human IGF1R [3]
  EC50: 282 nM
Human IR-A [4]
  EC50: 198 nM

## Human IGF-1: human insulin like growth factor-1, supplied by Merck [reference compound]
R+ cells
  increase in cell proliferation in cells transfected with empty vector: 2.2 fold
IGF1R gene expression
  decrease of IGF-1R gene expression: neither dcMFRV-VILP nor IGF-1 demonstrated a similar effect

## Human insulin: human insulin, supplied by Merck; Humulin (Eli Lilly) in the insulin tolerance test [reference compound]
C57BL/6 J mice; 6 nmol/kg (1x) i.p., male C57BL/6 J mice, 6 h starved
  maximum decrease in blood glucose levels: ~60%

## I: VLTDKLCGKDLVDALLLVCGEKGVYSPKMG / II: GIADVCCTSANGCDLNFLEKFCKT (disulfide I:7-II:7, I:19-II:22, II:6-II:13) [dcMFRV]
Human IR-A [1]; ratio of Kd values
  affinity on IR-A, fold stronger than IGF-1: 1.5 fold
  fold difference in IR-A affinity, dcMFRV-VILP higher than the sc form: about 3 fold
C57BL/6 J mice; 60 nmol/kg (10x) i.p., dcMFRV-VILP
  glucose-lowering effect: comparable effect to scMFRV-VILP (1x)
IGF1R gene expression
  decrease of IGF-1R gene expression: neither dcMFRV-VILP nor IGF-1 demonstrated a similar effect
IR-B
  maximum response of IR-B autophosphorylation compared to 10 nM insulin: comparable maximum response

Reference: publication PMC10831276, “A viral insulin-like peptide inhibits IGF-1 receptor phosphorylation and regulates IGF1R gene expression” (Molecular Metabolism, 2024)
